From patent publication US8088930B2, “Benzimidazole derivatives” (Hoffmann-La Roche Inc., priority 2008, dated 2012) come the findings set out here.

The test addresses T1, FXR ligand binding domain (GST-FXR LBD fusion protein, human FXR aa 193-473) (Homo sapiens, UniProt Q96RI1).
T1 construct: fused on or other part: Glutathione-S-transferase (GST) fused N-terminally to the FXR LBD, used to capture the protein on glutathione SPA beads
T1 sequence (Q96RI1 211-486 limits assumed): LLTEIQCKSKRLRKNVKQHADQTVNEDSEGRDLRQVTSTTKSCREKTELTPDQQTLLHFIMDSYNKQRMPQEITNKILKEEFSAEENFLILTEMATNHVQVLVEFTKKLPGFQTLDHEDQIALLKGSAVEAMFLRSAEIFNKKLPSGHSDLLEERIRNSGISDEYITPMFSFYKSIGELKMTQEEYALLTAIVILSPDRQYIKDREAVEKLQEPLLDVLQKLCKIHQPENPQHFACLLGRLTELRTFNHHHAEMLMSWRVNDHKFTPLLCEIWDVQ
The test is described as follows: Radioligand binding assay (scintillation proximity, radioligand displacement). The conditions noted are these: 40 nM GST-FXR LBD on SPA beads, test compound 6×10^−9 M to 2.5×10^−5 M, read-out: h-IC50 Binding. The procedure:
The following tests were carried out in order to determine the activity of the compounds of formula (I).
To accomplish this, the portions of the sequences encoding the FXR LBD were amplified by polymerase chain reaction (PCR) from a full-length clone by PCR and then subcloned into the plasmid vectors. The final clone was verified by DNA sequence analysis.
The induction, expression, and subsequent purification of GST-LBD fusion protein was performed in E. coli strain BL21(pLysS) cells by standard methods (Current Protocols in Molecular Biology, Wiley Press, ed. Ausubel et al.).
Radioligand Binding Assay
Binding of test substances to the FXR ligand binding domain was assessed in a radioligand displacement assay. The assay was performed in a buffer consisting of 50 mM Hepes, pH 7.4, 10 mM NaCl, 5 mM MgCl2, 0.01% CHAPS. For each reaction well in a 96-well plate, 40 nM of GST-FXR LBD fusion protein was bound to 10 μg glutathione yttrium silicate SPA beads (Pharmacia Amersham) in a final volume of 50 μl by shaking. A radioligand (e.g., 20 nM of 2,N-dicyclohexyl-2-[2-(2,4 dimethoxy-phenyl)-benzoimidazol-1-yl]-acetamide) and test compounds were added, and scintillation proximity counting was performed. All binding assays were performed in 96-well plates and the amount of bound ligand was measured on a Packard TopCount using OptiPlates (Packard).
A general note: In a scintillation proximity assay essentially only radioactivity close to the scintillant gives light.
The term IC50 denotes the concentration at which inhibition is half-maximal. Turning to `O=C(O)c1cc(F)c(OCC(C2CCCCC2)n2c(-c3ccc(Cl)cc3)nc3ccccc32)c(Cl)c1` (single isomer, unassigned; (+)) [Example 110, (+)-3-Chloro-4-{2-[2-(4-chloro-phenyl)-benzoimidazol-1-yl]-2-cyclohexyl-ethoxy}-5-fluoro-benzoic acid], the IC50 was 60 nM.
`CC(C)(OCc1ccc(C(=O)O)cc1)C(C1CCCCC1)n1c(-c2ccc(Cl)cc2)nc2cc(F)c(F)cc21` (centres unmarked) [Example 57, 4-{2-[2-(4-Chloro-phenyl)-5,6-difluoro-benzoimidazol-1-yl]-2-cyclohexyl-1,1-dimethyl-ethoxymethyl}-benzoic acid]: the IC50 was found to be 100 nM.
`O=C(O)c1cc(F)c(OCC(C2CCCCC2)n2c(-c3ccc(Cl)cc3)nc3cc(F)c(F)cc32)c(Cl)c1` (single isomer, unassigned; (+)) [Example 78, (+)-3-Chloro-4-{2-[2-(4-chloro-phenyl)-5,6-difluoro-benzoimidazol-1-yl]-2-cyclohexyl-ethoxy}-5-fluoro-benzoic acid]: the IC50 was 30 nM.
The result for `O=C(O)C1(Oc2ccc(OCC(C3CCCCC3)n3c(-c4ccc(Cl)cc4)nc4cc(F)c(F)cc43)cc2)CC1` (single isomer, unassigned; (+)) [Example 122, (+)-1-(4-{2-[2-(4-Chloro-phenyl)-5,6-difluoro-benzoimidazol-1-yl]-2-cyclohexyl-ethoxy}-phenoxy)-cyclopropanecarboxylic acid] reads 180 nM; that for `O=C(O)c1cc(F)c(OCC(C2CCCCC2)n2c(-c3ccc(Cl)cc3)nc3cc(F)c(F)cc32)c(Cl)c1` (single isomer, unassigned; (-)) [Example 77, (−)-3-Chloro-4-{2-[2-(4-chloro-phenyl)-5,6-difluoro-benzoimidazol-1-yl]-2-cyclohexyl-ethoxy}-5-fluoro-benzoic acid], 3 nM.
Regarding `Fc1cc2nc(-c3ccc(Cl)cc3)n(C(COc3ccccc3F)C3CCCCC3)c2cc1F` (centres unmarked) [Example 34, 2-(4-Chloro-phenyl)-1-[1-cyclohexyl-2-(2-fluoro-phenoxy)-ethyl]-5,6-difluoro-1H-benzoimidazole], the IC50 was 40 nM.
With `Cc1cc(Cl)ccc1-c1nc2cc(F)c(F)cc2n1C(COc1c(F)cc(C(=O)O)cc1F)C1CCCCC1` (single isomer, unassigned; (-)) [Example 125, (−)-4-{2-[2-(4-Chloro-2-methyl-phenyl)-5,6-difluoro-benzoimidazol-1-yl]-2-cyclohexyl-ethoxy}-3,5-difluoro-benzoic acid], the IC50 is 10 nM.
As to `COc1cc(C(=O)O)cc(OCC(C2CCCCC2)n2c(-c3ccc(Cl)cc3)nc3cc(F)c(F)cc32)n1` (centres unmarked) [Example 31, 2-{2-[2-(4-Chloro-phenyl)-5,6-difluoro-benzoimidazol-1-yl]-2-cyclohexyl-ethoxy}-6-methoxy-isonicotinic acid], the IC50 came out at 600 nM.
Take `O=C(O)c1ccc(OCC(C2CCCCC2)n2c(-c3ccc(Cl)cc3)nc3cc(F)c(F)cc32)cn1` (centres unmarked) [Example 18, 5-{2-[2-(4-Chloro-phenyl)-5,6-difluoro-benzoimidazol-1-yl]-2-cyclohexyl-ethoxy}-pyridine-2-carboxylic acid]: the IC50 turned out to be 1300 nM.
On to `Cc1cc(Cl)ccc1-c1nc2cc(F)c(F)cc2n1C(COc1c(F)cc(C(=O)O)cc1F)C1CCCCC1` (single isomer, unassigned; (+)) [Example 126, (+)-4-{2-[2-(4-Chloro-2-methyl-phenyl)-5,6-difluoro-benzoimidazol-1-yl]-2-cyclohexyl-ethoxy}-3,5-difluoro-benzoic acid], for which the IC50 turned out to be 30 nM.
In the case of `O=C(O)c1ccc(OCC(C2CCCCC2)n2c(-c3ccc(Cl)cc3)nc3cc(F)c(F)cc32)nc1` (single isomer, unassigned; (-)) [Example 21, (−)-6-{2-[2-(4-Chloro-phenyl)-5,6-difluoro-benzoimidazol-1-yl]-2-cyclohexyl-ethoxy}-nicotinic acid], the IC50 came to 600 nM.
